Measurements as given in PubChem BioAssay (NCI).
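Five concentrations, 48 hours, 96-well plates. GI50 marks 50% less growth. TGI marks complete inhibition of growth.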

Key:
Assay in all cases: NCI-60 cell line screen, 48 h
T-47D breast = tested on: T-47D breast
NCI-H460 lung = tested on: NCI-H460 lung
CAKI-1 renal = tested on: CAKI-1 renal
A498 renal = tested on: A498 renal
HL-60(TB) leukemia = tested on: HL-60(TB) leukemia
RPMI-8226 leukemia = tested on: RPMI-8226 leukemia
LOX IMVI melanoma = tested on: LOX IMVI melanoma
SNB-75 CNS = tested on: SNB-75 CNS
SW-620 colon = tested on: SW-620 colon
A549 NSCLC = tested on: A549 NSCLC
NCI/ADR-RES ovarian = tested on: NCI/ADR-RES ovarian
SK-OV-3 ovarian = tested on: SK-OV-3 ovarian
K-562 leukemia = tested on: K-562 leukemia
RXF 393 renal = tested on: RXF 393 renal
IGROV1 ovarian = tested on: IGROV1 ovarian
HOP-62 NSCLC = tested on: HOP-62 NSCLC
ACHN renal = tested on: ACHN renal
TK-10 renal = tested on: TK-10 renal
MOLT-4 leukemia = tested on: MOLT-4 leukemia
U251 CNS = tested on: U251 CNS
UACC-257 melanoma = tested on: UACC-257 melanoma
HT29 colon = tested on: HT29 colon
SK-MEL-5 melanoma = tested on: SK-MEL-5 melanoma
HCC-2998 colon = tested on: HCC-2998 colon
M14 melanoma = tested on: M14 melanoma
CCRF-CEM leukemia = tested on: CCRF-CEM leukemia
DU-145 prostate = tested on: DU-145 prostate
HCT-15 colon = tested on: HCT-15 colon
SF-268 CNS = tested on: SF-268 CNS
BT-549 breast = tested on: BT-549 breast
SNB-19 CNS = tested on: SNB-19 CNS
MDA-MB-435 = tested on: MDA-MB-435
NCI-H226 lung = tested on: NCI-H226 lung
PC-3 prostate = tested on: PC-3 prostate
NCI-H23 lung = tested on: NCI-H23 lung
OVCAR-4 ovarian = tested on: OVCAR-4 ovarian
SF-539 CNS = tested on: SF-539 CNS
HOP-92 NSCLC = tested on: HOP-92 NSCLC
SF-295 CNS = tested on: SF-295 CNS
MDA-MB-231 breast = tested on: MDA-MB-231 breast
OVCAR-5 ovarian = tested on: OVCAR-5 ovarian
SN12C renal = tested on: SN12C renal
OVCAR-8 ovarian = tested on: OVCAR-8 ovarian
SK-MEL-2 melanoma = tested on: SK-MEL-2 melanoma
UO-31 renal = tested on: UO-31 renal
EKVX NSCLC = tested on: EKVX NSCLC
HCT-116 colon = tested on: HCT-116 colon
MCF7 breast = tested on: MCF7 breast
SK-MEL-28 melanoma = tested on: SK-MEL-28 melanoma
COLO 205 colon = tested on: COLO 205 colon
MALME-3M melanoma = tested on: MALME-3M melanoma
HS 578T breast = tested on: HS 578T breast
786-0 renal = tested on: 786-0 renal
KM12 colon = tested on: KM12 colon
NCI-H522 lung = tested on: NCI-H522 lung
UACC-62 melanoma = tested on: UACC-62 melanoma
OVCAR-3 ovarian = tested on: OVCAR-3 ovarian

Fc1ccc(-c2nnc3sc(-c4cccc(Cl)c4)nn23)cc1Cl
GI50 (T-47D breast): > 100 µM | TGI (T-47D breast): > 100 µM | GI50 (NCI-H460 lung): > 100 µM | TGI (NCI-H460 lung): > 100 µM | GI50 (CAKI-1 renal): > 100 µM | TGI (CAKI-1 renal): > 100 µM | GI50 (A498 renal): > 100 µM | TGI (A498 renal): > 100 µM | GI50 (HL-60(TB) leukemia): > 100 µM | TGI (HL-60(TB) leukemia): > 100 µM | GI50 (RPMI-8226 leukemia): > 100 µM | TGI (RPMI-8226 leukemia): > 100 µM | GI50 (LOX IMVI melanoma): > 100 µM | TGI (LOX IMVI melanoma): > 100 µM | GI50 (SNB-75 CNS): 44.4 µM | TGI (SNB-75 CNS): > 100 µM | GI50 (SW-620 colon): > 100 µM | TGI (SW-620 colon): > 100 µM | GI50 (A549 NSCLC): > 100 µM | TGI (A549 NSCLC): > 100 µM | GI50 (NCI/ADR-RES ovarian): > 100 µM | TGI (NCI/ADR-RES ovarian): > 100 µM | GI50 (SK-OV-3 ovarian): > 100 µM | TGI (SK-OV-3 ovarian): > 100 µM | GI50 (K-562 leukemia): > 100 µM | TGI (K-562 leukemia): > 100 µM | GI50 (RXF 393 renal): 39.5 µM | TGI (RXF 393 renal): > 100 µM | GI50 (IGROV1 ovarian): > 100 µM | TGI (IGROV1 ovarian): > 100 µM | GI50 (HOP-62 NSCLC): > 100 µM | TGI (HOP-62 NSCLC): > 100 µM | GI50 (ACHN renal): > 100 µM | TGI (ACHN renal): > 100 µM | GI50 (TK-10 renal): > 100 µM | TGI (TK-10 renal): > 100 µM | GI50 (MOLT-4 leukemia): > 100 µM | TGI (MOLT-4 leukemia): > 100 µM | GI50 (U251 CNS): > 100 µM | TGI (U251 CNS): > 100 µM | GI50 (UACC-257 melanoma): > 100 µM | TGI (UACC-257 melanoma): > 100 µM | GI50 (HT29 colon): > 100 µM | TGI (HT29 colon): > 100 µM | GI50 (SK-MEL-5 melanoma): > 100 µM | TGI (SK-MEL-5 melanoma): > 100 µM | GI50 (HCC-2998 colon): > 100 µM | TGI (HCC-2998 colon): > 100 µM | GI50 (M14 melanoma): > 100 µM | TGI (M14 melanoma): > 100 µM | GI50 (CCRF-CEM leukemia): > 100 µM | TGI (CCRF-CEM leukemia): > 100 µM | GI50 (DU-145 prostate): > 100 µM | TGI (DU-145 prostate): > 100 µM | GI50 (HCT-15 colon): > 100 µM | TGI (HCT-15 colon): > 100 µM | GI50 (SF-268 CNS): > 100 µM | TGI (SF-268 CNS): > 100 µM | GI50 (BT-549 breast): > 100 µM | TGI (BT-549 breast): > 100 µM | GI50 (SNB-19 CNS): > 100 µM | TGI (SNB-19 CNS): > 100 µM | GI50 (MDA-MB-435): > 100 µM | TGI (MDA-MB-435): > 100 µM | GI50 (NCI-H226 lung): > 100 µM | TGI (NCI-H226 lung): > 100 µM | GI50 (PC-3 prostate): > 100 µM | TGI (PC-3 prostate): > 100 µM | GI50 (NCI-H23 lung): > 100 µM | TGI (NCI-H23 lung): > 100 µM | GI50 (OVCAR-4 ovarian): > 100 µM | TGI (OVCAR-4 ovarian): > 100 µM | GI50 (SF-539 CNS): > 100 µM | TGI (SF-539 CNS): > 100 µM | GI50 (HOP-92 NSCLC): 33.7 µM | TGI (HOP-92 NSCLC): 89.6 µM | GI50 (SF-295 CNS): > 100 µM | TGI (SF-295 CNS): > 100 µM | GI50 (MDA-MB-231 breast): > 100 µM | TGI (MDA-MB-231 breast): > 100 µM | GI50 (OVCAR-5 ovarian): > 100 µM | TGI (OVCAR-5 ovarian): > 100 µM | GI50 (SN12C renal): > 100 µM | TGI (SN12C renal): > 100 µM | GI50 (OVCAR-8 ovarian): > 100 µM | TGI (OVCAR-8 ovarian): > 100 µM | GI50 (SK-MEL-2 melanoma): > 100 µM | TGI (SK-MEL-2 melanoma): > 100 µM | GI50 (UO-31 renal): > 100 µM | TGI (UO-31 renal): > 100 µM | GI50 (EKVX NSCLC): > 100 µM | TGI (EKVX NSCLC): > 100 µM | GI50 (HCT-116 colon): > 100 µM | TGI (HCT-116 colon): > 100 µM | GI50 (MCF7 breast): > 100 µM | TGI (MCF7 breast): > 100 µM | GI50 (SK-MEL-28 melanoma): > 100 µM | TGI (SK-MEL-28 melanoma): > 100 µM | GI50 (COLO 205 colon): > 100 µM | TGI (COLO 205 colon): > 100 µM | GI50 (MALME-3M melanoma): > 100 µM | TGI (MALME-3M melanoma): > 100 µM | GI50 (HS 578T breast): > 100 µM | TGI (HS 578T breast): > 100 µM | GI50 (786-0 renal): > 100 µM | TGI (786-0 renal): > 100 µM | GI50 (KM12 colon): > 100 µM | TGI (KM12 colon): > 100 µM | GI50 (NCI-H522 lung): > 100 µM | TGI (NCI-H522 lung): > 100 µM | GI50 (UACC-62 melanoma): > 100 µM | TGI (UACC-62 melanoma): > 100 µM | GI50 (OVCAR-3 ovarian): > 100 µM | TGI (OVCAR-3 ovarian): > 100 µM
